Assay results reported in patent US9403830B2, “Inhibitors of leukotriene production” (Boehringer Ingelheim International GmbH, priority 2012, dated 2016).
pIC50: −log10 of the molar value.

Experiments:
human LTA4 hydrolase = target: T1, human LTA4 hydrolase (Homo sapiens, UniProt P09960); test: LTA4H Enzyme assay (peptidase, Arg-AMC cleavage); format: biochemical; details: LTA4H enzyme 1 nM, Arg-AMC substrate 50 μM, room temperature 1 h, fluorescence 380/460 nm
T1 sequence (P09960 1-611): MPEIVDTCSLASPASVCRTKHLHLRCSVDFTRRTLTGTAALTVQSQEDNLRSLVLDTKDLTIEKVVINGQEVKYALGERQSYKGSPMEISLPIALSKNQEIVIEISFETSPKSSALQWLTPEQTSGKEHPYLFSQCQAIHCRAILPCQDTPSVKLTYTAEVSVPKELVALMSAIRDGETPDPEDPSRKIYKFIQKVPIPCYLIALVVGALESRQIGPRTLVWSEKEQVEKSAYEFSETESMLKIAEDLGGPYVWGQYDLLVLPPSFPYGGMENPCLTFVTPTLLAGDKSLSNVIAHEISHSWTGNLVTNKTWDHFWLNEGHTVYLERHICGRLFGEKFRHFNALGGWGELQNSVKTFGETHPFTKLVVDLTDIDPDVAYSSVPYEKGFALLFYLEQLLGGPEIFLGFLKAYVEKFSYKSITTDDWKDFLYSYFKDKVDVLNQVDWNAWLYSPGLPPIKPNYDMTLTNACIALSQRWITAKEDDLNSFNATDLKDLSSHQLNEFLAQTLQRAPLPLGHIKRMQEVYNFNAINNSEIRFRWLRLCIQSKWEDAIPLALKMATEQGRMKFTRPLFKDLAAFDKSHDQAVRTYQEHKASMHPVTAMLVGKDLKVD
Procedure, shortened: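 Human LTA4H (1 nM final) incubated with compound and Arg-AMC (50 μM final) in 50 mM Tris-HCl pH 7.5, 100 mM KCl, 0.5% BSA, 1 h at room temperature. Product read as AMC fluorescence (ex 380/em 460 nm); IC50 reported.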

[1] = test system: LTB4 synthesis in human whole blood; test: human whole blood (HWB) assay, inhibition of LTB4 production; format: cell-based; details: heparinized human whole blood, calcimycin 20 μM stimulation, plasma LTB4
Procedure, shortened: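 Plasma LTB4, quantified by HTRF immunoassay, is the read-out after calcimycin challenge (20 μM final, 30 min, 37 °C) of heparinized whole blood that had been pretreated with compound for 15 min at 37 °C; values given as IC50.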

pIC50 (human LTA4 hydrolase) | pIC50 [1] | SMILES
9.26 | 6.72 | c1cc(-c2ccc(Oc3ccc4[nH]c(CNC[C@H]5CCCO5)nc4c3)cc2)[nH]n1 [Example 101, {5-[4-(2H-Pyrazol-3-yl)-phenoxy]-1H-benzoimidazol-2-ylmethyl}-[(R)-1-(tetrahydro-furan-2-yl)methyl]-amine]
8.30 | 6.17 | c1ccc(OC2CCN(Cc3ccc4cc(Oc5ccc(-c6ccn[nH]6)cn5)ccc4n3)CC2)nc1 [Example 215, 6-[5-(2H-Pyrazol-3-yl)-pyridin-2-yloxy]-2-[4-(pyridin-2-yloxy)-piperidin-1-ylmethyl]-quinoline]
9.21 | 6.92 | CN(C)CCn1ncc2cc(Oc3ccc(-c4ccn[nH]4)cc3)ccc21 [Example 162, Dimethyl-(2-{5-[4-(2H-pyrazol-3-yl)-phenoxy]-indazol-1-yl}-ethyl)-amine]
9.64 | 6.82 | COCCN(CCOC)Cc1nc2cc(Oc3ccc(-c4ccn[nH]4)cc3)ccc2[nH]1 [Example 186, Bis-(2-methoxy-ethyl)-{5-[4-(2H-pyrazol-3-yl)-phenoxy]-1H-benzoimidazol-2-ylmethyl}-amine]
9.03 | 6.64 | CC(=O)N1CCN(Cc2cc3cc(Oc4ccc(-c5ccn[nH]5)cn4)ccc3cn2)CC1 [Example 223, 1-(4-{6-[5-(2H-Pyrazol-3-yl)-pyridin-2-yloxy]-isoquinolin-3-ylmethyl}-piperazin-1-yl)-ethanone]
8.60 | 6.40 | c1cc(-c2ccc(Oc3ccc4nc(CNCCC5CCOCC5)ccc4c3)nc2)[nH]n1 [Example 214, {6-[5-(2H-Pyrazol-3-yl)-pyridin-2-yloxy]-quinolin-2-ylmethyl}-[2-(tetrahydro-pyran-4-yl)-ethyl]-amine]
9.85 | 6.92 | CN(Cc1nc2cc(Oc3ccc(-c4ccn[nH]4)cc3)ccc2[nH]1)C1CCCC1 [Example 164, Cyclopentyl-methyl-{5-[4-(2H-pyrazol-3-yl)-phenoxy]-1H-benzoimidazol-2-ylmethyl}-amine]
9.54 | 7.00 | CC(=O)NC1CCN(CC2Cc3ccc(Oc4ccc(-c5ccn[nH]5)cn4)cc3O2)CC1 (centres unmarked) [Example 125, N-(1-{6-[5-(2H-Pyrazol-3-yl)-pyridin-2-yloxy]-2,3-dihydro-benzofuran-2-ylmethyl}-piperidin-4-yl)-acetamide]
9.25 | 6.74 | CC(=O)N1CCCN(CCC2COc3cc(Oc4ccc(-c5ccn[nH]5)cn4)ccc32)CC1 (centres unmarked) [Example 135, 1-[4-(2-{6-[5-(2H-Pyrazol-3-yl)-pyridin-2-yloxy]-2,3-dihydro-benzofuran-3-yl}-ethyl)-[1,4]diazepan-1-yl]-ethanone]

The next lines start with the molecule.

SMILES | pIC50 (human LTA4 hydrolase) | pIC50 [1]
O=S1(=O)CC2CC1CN2Cc1ccc2cc(Oc3ccc(-c4ccn[nH]4)cc3)ccc2n1 (centres unmarked) [Example 17, 2-(2,2-Dioxo-2-λ-6-thia-5-aza-bicyclo[2.2.1]hept-5-ylmethyl)-6-[4-(2H-pyrazol-3-yl)-phenoxy]-quinoline] | 8.96 | 6.37
C[C@H]1CN(Cc2nc3ccc(Cc4ccc(-c5ccn[nH]5)cc4)cc3[nH]2)C[C@H](C)O1 [Example 56, 2-((2S,6S)-2,6-Dimethyl-morpholin-4-ylmethyl)-6-[4-(2H-pyrazol-3-yl)-benzyl]-1H-benzoimidazole] | 9.74 | 6.96
O=C(CO)N1CCN(Cc2ccc3cc(Oc4ccc(-c5ccn[nH]5)cn4)ccc3n2)CC1 [Example 27, 2-Hydroxy-1-(4-{6-[5-(2H-pyrazol-3-yl)-pyridin-2-yloxy]-quinolin-2-ylmethyl}-piperazin-1-yl)-ethanone] | 9.14 | 6.82
c1cc(-c2ccc(Cc3ccc4nc(CN5CCCC5)[nH]c4c3)cc2)[nH]n1 [Example 54, 6-[4-(2H-Pyrazol-3-yl)-benzyl]-2-pyrrolidin-1-ylmethyl-1H-benzoimidazole] | 9.89 | 7.03
c1cc(-c2ccc(Oc3ccc4[nH]c(C5(N6CCOCC6)CC5)nc4c3)cc2)[nH]n1 [Example 59, 2-(1-Morpholin-4-yl-cyclopropyl)-5-[4-(2H-pyrazol-3-yl)-phenoxy]-1H-benzoimidazole] | 9.89 | 6.89
O=C(CO)N1CC2CCC(C1)N2Cc1ccc2cc(Oc3ccc(-c4ccn[nH]4)cn3)ccc2n1 [Example 132, 2-Hydroxy-1-(8-{6-[5-(2H-pyrazol-3-yl)-pyridin-2-yloxy]-quinolin-2-ylmethyl}-3,8-diaza-bicyclo[3.2.1]oct-3-yl)-ethanone] | 9.55 | 6.85
c1cc(-c2ccc(Oc3ccc4c(cnn4CCCN4CCCC4)c3)cc2)[nH]n1 [Example 79, 5-[4-(2H-Pyrazol-3-yl)-phenoxy]-1-(3-pyrrolidin-1-yl-propyl)-1H-indazole] | 9.52 | 7.01
CC(C)C(=O)N1CCN(Cc2ccc3cc(Oc4ccc(-c5ccn[nH]5)cn4)ccc3n2)CC1 [Example 26, 2-Methyl-1-(4-{6-[5-(2H-pyrazol-3-yl)-pyridin-2-yloxy]-quinolin-2-ylmethyl}-piperazin-1-yl)-propan-1-one] | 9.24 | 6.89
O=C(N1CCN(Cc2nc3cc(Oc4ccc(-c5ccn[nH]5)cc4)ccc3[nH]2)CC1)C(F)(F)F [Example 57, 2,2,2-Trifluoro-1-(4-[5-[4-(2H-pyrazol-3-yl)-phenoxy]-1H-benzoimidazol-2-ylmethyl]-piperazin-1-yl)-ethanone] | 9.89 | 6.96
FC(F)(F)CN1CCN(Cc2nc3cc(Oc4ccc(-c5ccn[nH]5)cc4)ccc3[nH]2)CC1 [Example 63, 5-[4-(2H-Pyrazol-3-yl)-phenoxy]-2-[4-(2,2,2-trifluoro-ethyl)-piperazin-1-ylmethyl]-1H-benzoimidazole] | 9.96 | 6.82
c1cc(-c2ccc(Oc3ccc4nc(CN5CCCCCC5)ccc4c3)nc2)[nH]n1 [Example 22, 2-Azepan-1-ylmethyl-6-[5-(2H-pyrazol-3-yl)-pyridin-2-yloxy]-quinoline] | 9.44 | 7.05
CC(=O)N1CC2CCC(C1)N2Cc1ccc2cc(Oc3ccc(-c4ccn[nH]4)cn3)ccc2n1 [Example 24, 1-(8-{6-[5-(2H-Pyrazol-3-yl)-pyridin-2-yloxy]-quinolin-2-ylmethyl}-3,8-diaza-bicyclo[3.2.1]oct-3-yl)-ethanone] | 9.48 | 7.00
C[C@H]1COC[C@H](C)N1Cc1nc2cc(Oc3ccc(-c4ccn[nH]4)cc3)ccc2[nH]1 [Example 55, 2-((3S,5S)-3,5-Dimethyl-morpholin-4-ylmethyl)-5-[4-(2H-pyrazol-3-yl)-phenoxy]-1H-benzoimidazole] | 9.89 | 7.00
CC(=O)N1CCN(CCn2cc3cc(Oc4ccc(-c5ccn[nH]5)cc4)ccc3n2)CC1 [Example 93, 1-[4-(2-{5-[4-(2H-Pyrazol-3-yl)-phenoxy]-indazol-2-yl}-ethyl)-piperazin-1-yl]-ethanone] | 9.24 | 6.82
CN(C)CC1CCc2cc(Oc3ccc(-c4ccn[nH]4)cc3)ccc2O1 (centres unmarked) [Example 8, dimethyl-{6-[4-(2H-pyrazol-3-yl)-phenoxy]-chroman-2-ylmethyl}-amine] | 9.46 | 7.00
CN(Cc1nc2cc(Oc3ccc(-c4ccn[nH]4)cc3)ccc2[nH]1)[C@H]1CCOC1 [Example 77, Methyl-{5-[4-(2H-pyrazol-3-yl)-phenoxy]-1H-benzoimidazol-2-ylmethyl}-(S)-tetrahydro-furan-3-yl-amine] | 10.00 | 7.06
